Measurements: patent publication US12263163B2 (Kronos Bio, Inc., priority 2013, dated 2025)

system: human hepatocytes; assay: Human Hepatocyte Stability Assay (predicted hepatocyte clearance); type: in vitro ADME; conditions: comparison table with known Syk inhibitors, head prints (units)
Procedure: The human […] stability of the compounds as predicted hepatocyte clearance in L/hr/kg was assessed. Compounds to be tested were diluted to 200 μM (4 μl of 10 mM DMSO stock into 196 μl ACN:H2O (50:50). Propranolol was used as a positive control, and buffer only without hepatocytes as 0% control. These were further diluted 4 μl with 891 μl KHB buffer (InVitroGRO catalog number Z99074) to provide 2× dosing solution. To each well of 24 well plate, 250 μl of the 2× dosing solution was added to each well with 250 μl of hepatocytes cells (1×10^6 viable cells/ml per well) or KHB for control samples to achieve a final compound concentration of 1 μM during incubation. The final solvent concentration was 0.01% DMSO and 0.25% ACN. The culture plate was placed on a rocker and incubated at 37° C., 5% CO2. Samples were collected at time 0, 1, 3, and 6 hours. The loss of parent compound was determined using LC-MS methods against a standard curve.

Row | Hheps CL [mL/min/kg] | Structure (SMILES)
1 | 1.3 | Cc1c(-c2cncc(N)n2)nc(Nc2ccc(N3CCN(C4COC4)CC3)cc2)c2nccn12 [Ex.-4, 6-(6-aminopyrazin-2-yl)-5-methyl-N-(4-(4-(oxetan-3-yl)piperazin-1-yl)phenyl)imidazo[1,2-a]pyrazin-8-amine]
2 | 0.917 | Nc1cncc(-c2cn3ccnc3c(Nc3ccc(N4CCN(C5COC5)CC4)cc3)n2)n1 [Ex.-2, 6-(6-aminopyrazin-2-yl)-N-(4-(4-(oxetan-3-yl)piperazin-1-yl)phenyl)imidazo[1,2-a]pyrazin-8-amine]
3 | 1.3 | Nc1cncc(-c2cn3ccnc3c(Nc3ccc(N4CCN(CC(CO)CO)CC4)cc3)n2)n1 [Ex.-6, 2-((4-(4-((6-(6-aminopyrazin-2-yl)imidazo[1,2-a]pyrazin-8-yl)amino)phenyl)piperazin-1-yl)methyl)propane-1,3-diol]
4 | 2 | Cc1ncc(-c2cn3ccnc3c(Nc3ccc(N4CCN(C5COC5)CC4)cc3)n2)nc1N [Ex.-1, 6-(6-amino-5-methylpyrazin-2-yl)-N-(4-(4-(oxetan-3-yl)piperazin-1-yl)phenyl)imidazo[1,2-a]pyrazin-8-amine]
5 | 1.5 | Nc1cncc(-c2cn3ccnc3c(Nc3ccc(N4CCO[C@@H](CO)C4)cc3)n2)n1 [Ex.-3, (R)-(4-(4-((6-(6-aminopyrazin-2-yl)imidazo[1,2-a]pyrazin-8-yl)amino)phenyl)morpholin-2-yl)methanol]
6 | 15 | COc1ccc(Nc2nc(-c3ccc(N)nc3)cn3ccnc23)cc1OC [6-(6-aminopyridin-3-yl)-N-(3,4-dimethoxyphenyl)imidazo[1,2-a]pyrazin-8-amine, reference compound]
7 | 1.2 | Nc1cncc(-c2cn3ccnc3c(Nc3ccc(N4CCN(C5COC5)CC4)c(OCCO)c3)n2)n1 [Ex.-5, 2-(5-((6-(6-aminopyrazin-2-yl)imidazo[1,2-a]pyrazin-8-yl)amino)-2-(4-(oxetan-3-yl)piperazin-1-yl)phenoxy)ethanol]
8 | 13.3 | Cc1ncc(-c2cn3ccnc3c(Nc3ccc(N4CCOCC4)cc3)n2)cc1N [6-(5-amino-6-methylpyridin-3-yl)-N-(4-morpholinophenyl)imidazo[1,2-a]pyrazin-8-amine, reference compound]
9 | 4 | COc1ccc(Nc2nc(-c3cccc(N)c3)cn3ccnc23)cc1OC [6-(3-aminophenyl)-N-(3,4-dimethoxyphenyl)imidazo[1,2-a]pyrazin-8-amine, reference compound]
10 | 11.3 | Nc1cncc(-c2cn3ccnc3c(Nc3ccc(N4CCOCC4)cc3)n2)c1 [6-(5-aminopyridin-3-yl)-N-(4-morpholinophenyl)imidazo[1,2-a]pyrazin-8-amine, reference compound]
11 | 0.83 | Cc1ncc(-c2cn3ccnc3c(Nc3ccc(N4CCN(C5COC5)CC4)c(OCCO)c3)n2)nc1N [Ex.-7, 2-(5-((6-(6-amino-5-methylpyrazin-2-yl)imidazo[1,2-a]pyrazin-8-yl)amino)-2-(4-(oxetan-3-yl)piperazin-1-yl)phenoxy)ethanol]
